# Measured values from patent publication US11964971B2, “Methods and compositions for modulating splicing” (Skyhawk Therapeutics, Inc., priority 2019, dated 2024).
# Assays:
# MDR1 = assay: in vitro; conditions: dog; for Papp A→B at 120 min, 5 μM: MDCK-MDR1, pH 7.4, MDCK-MDR1: Papp A-B (10^−6, cm/s); for Papp B→A at 120 min, 5 μM: MDCK-MDR1, pH 7.4, MDCK-MDR1: Papp B-A (10^−6, cm/s)
# [1] = test system: MDR1-MDCK cell monolayers; conditions: dog, MDCK-MDR1, 120 min, 5 μM, pH 7.4
# SMN protein = SMN protein assay (MSD) in SMA patient fibroblasts (GM03813); format: cell-based, human
# Method: Compounds are tested on spinal muscular atrophy (SMA) patient fibroblasts (GM03813, Coriell) at doses ranging from 2.5 μM to 0.6 nM. 7000 cells/well are seeded in 96-well plates. Compounds are incubated for 48 hours and the cells were lysed with 100 μL of lysis buffer. 20 μL of lysate is used for SMN protein measurement by Mesoscale Discovery (MSD) assay developed by PharmOptima (Michigan). A standard curve prepared with SMN protein ranging from […] is used in each MSD plate to calculate the absolute SMN protein amount in each sample.
# MDR1 (P-gp) = assay: MDCK-MDR1 permeability assay, blood-brain-barrier penetration potential; conditions: dog, MDCK-MDR1, pH 7.4, MDCK-MDR1 Efflux Ratio
Structure (SMILES),"Papp A→B at 120 min, 5 μM (MDR1) [×10⁻⁶ cm/s]","Papp B→A at 120 min, 5 μM (MDR1) [×10⁻⁶ cm/s]",MDCK-MDR1: % Recov A-B (%) [1] [%],MDCK-MDR1: % Recov B-A (%) [1] [%],EC50 (SMN protein) [nM],"efflux ratio at 120 min, 5 μM (MDR1 (P-gp))"
"COc1cc(-c2cc(O)c(-c3cnc(N(C4CC4)[C@H]4C[C@@H]5CCC(N5)[C@H]4F)cn3)cc2F)ccn1 (single isomer, unassigned) [Compound 36E2]",0.59,1.3,10,40,501 to 10000,2
"COc1cc(-c2cc(O)c(-c3cnc(N(C4CC4)[C@@H]4CC5CC[C@H](N5)[C@@H]4F)cn3)cc2F)cc(F)n1 (single isomer, unassigned) [Compound 37E1]",1.41,2.73,18,53,501 to 10000,2
"COc1cc(-c2cc(O)c(-c3cnc(N(C4CC4)[C@H]4C[C@@H]5CCC(N5)[C@H]4F)cn3)cc2F)cc(F)n1 (single isomer, unassigned) [Compound 37E2]",0.94,2.58,19,45,501 to 10000,3
"Cn1ccc(-c2cc(O)c(-c3cnc(N(C4CC4)[C@@H]4CC5CC[C@H](N5)[C@@H]4F)cn3)cc2F)cc1=O (single isomer, unassigned) [Compound 38E1]",1.47,54.9,81,94,501 to 10000,37
"Cn1ccc(-c2cc(O)c(-c3cnc(N(C4CC4)[C@H]4C[C@@H]5CCC(N5)[C@H]4F)cn3)cc2F)cc1=O (single isomer, unassigned) [Compound 38E2]",1.75,57.7,82,82,501 to 10000,33
"O=c1cc(-c2cc(O)c(-c3cnc(N(C4CC4)[C@@H]4CC5CC[C@H](N5)[C@@H]4F)cn3)cc2F)ccn1CF (single isomer, unassigned) [Compound 39E1]",2.1,64.2,70,89,501 to 10000,31
"O=c1cc(-c2cc(O)c(-c3cnc(N(C4CC4)[C@H]4C[C@@H]5CCC(N5)[C@H]4F)cn3)cc2F)ccn1CF (single isomer, unassigned) [Compound 39E2]",2.58,62,82,81,501 to 10000,24
"Oc1cc(-c2cn[nH]c2)c(F)cc1-c1cnc(N(C2CC2)[C@@H]2CC3CC[C@H](N3)[C@@H]2F)cn1 (single isomer, unassigned) [Compound 41E1]",6.63,39.2,54,75,501 to 10000,8
"Oc1cc(-c2cn[nH]c2)c(F)cc1-c1cnc(N(C2CC2)[C@H]2C[C@@H]3CCC(N3)[C@H]2F)cn1 (single isomer, unassigned) [Compound 41E2]",6.09,34.4,54,72,101 to 500,6
"CN(c1cnc(-c2ccc(-c3cnn(CF)c3)cc2O)cn1)[C@H]1C[C@@H]2CCC(N2)[C@H]1F (single isomer, unassigned) [Compound 42E2]",5.95,31.8,44,60,501 to 10000,5
"COc1cc(-c2ccc(-c3cnc(N(C)[C@@H]4CC5CC[C@H](N5)[C@@H]4F)cn3)c(O)c2)ccn1 (single isomer, unassigned) [Compound 43E1]",1.06,1.31,18,50,101 to 500,1
"COc1cc(-c2ccc(-c3cnc(N(C)[C@H]4C[C@@H]5CCC(N5)[C@H]4F)cn3)c(O)c2)ccn1 (single isomer, unassigned) [Compound 43E2]",0.98,1.35,12,49,16 to 50,1
"COc1cc(-c2ccc(-c3cnc(N(C)[C@@H]4CC5CC[C@H](N5)[C@@H]4F)cn3)c(O)c2)cc(F)n1 (single isomer, unassigned) [Compound 44E1]",2.33,5.55,14,41,501 to 10000,2
"COc1cc(-c2ccc(-c3cnc(N(C)[C@H]4C[C@@H]5CCC(N5)[C@H]4F)cn3)c(O)c2)cc(F)n1 (single isomer, unassigned) [Compound 44E2]",3.33,9.1,13,52,101 to 500,3
"CN(c1cnc(-c2ccc(-c3ccn(C)c(=O)c3)cc2O)cn1)[C@H]1C[C@@H]2CCC(N2)[C@H]1F (single isomer, unassigned) [Compound 45E2]",1.9,65.6,87,87,51 to 100,35
"CN(c1cnc(-c2ccc(-c3ccn(CF)c(=O)c3)cc2O)cn1)[C@@H]1CC2CC[C@H](N2)[C@@H]1F (single isomer, unassigned) [Compound 46E1]",1.69,37.9,74,78,501 to 10000,22
"CN(c1cnc(-c2ccc(-c3ccn(CF)c(=O)c3)cc2O)cn1)[C@H]1C[C@@H]2CCC(N2)[C@H]1F (single isomer, unassigned) [Compound 46E2]",2,43,77,80,101 to 500,22
"CN(c1cnc(-c2ccc(-c3cc(=O)n(C)cn3)cc2O)cn1)[C@@H]1CC2CC[C@H](N2)[C@@H]1F (single isomer, unassigned) [Compound 47E1]",2.32,52.8,74,78,101 to 500,23
"CN(c1cnc(-c2ccc(-c3cc(=O)n(C)cn3)cc2O)cn1)[C@H]1C[C@@H]2CCC(N2)[C@H]1F (single isomer, unassigned) [Compound 47E2]",3.35,51.1,84,90,51 to 100,15
"COc1cc(-c2ccc(-c3cnc(N(C)[C@H]4C[C@@H]5CCC(N5)[C@H]4F)cn3)c(O)c2)ncn1 (single isomer, unassigned) [Compound 48E2]",5.38,13.8,28,57,51 to 100,3
